This test relates to peptidylglycine α-amidating monooxygenase (PAM). Description: α-Amidation of rhPTH(1-31)Gly32-OH to rhPTH(1-31)-NH2 with PAM in the presence of α-keto acids/esters (CEX-HPLC area %). The format is biochemical. The conditions noted are these: 4 mg/mL rhPTH(1-31)Gly32-OH, 15,000 U/mL PAM, MES pH 6.3-6.5, 4 hours at 37° C. The source says: Because the R group is unchanged in this reaction, a large number of R moieties is possible. Applicants have tested a number of keto acids (or corresponding esters or salts thereof), and have reported their efficacy in Table 1 below for the amidation of recombinant human parathyroid hormone truncate (first 31 amino acids of PTH followed by C-terminal glycine). Amidation using catalase is also reported in the footnotes to Table 1. […] A preferred concentration was chosen for each compound. Also, separate controls are therefore used with respect to each of the compounds tested in Table 1, so that each compound's performance may be compared to its corresponding control. […] The control values that are set forth in Table 1 are typical values observed for amidation of rhPTH(1-31)Gly32-OH in the absence of the reaction-enhancing compounds of the invention.
To determine the information in Table 1 below, stock solutions of all reagents were prepared in water. Amidations were carried out under the following conditions: 4 mg/mL rhPTH(1-31)Gly32-OH, 30 mM 2-morpholinoethanesulfonic acid (MES) pH [6.3-6.5], 0.5 μM cupric sulfate, 5 mM potassium iodide, 2 mM ascorbate, [0-1%] ethanol and 15,000 U/mL PAM. All reactions were incubated for 4 hours at 37° C. Reagents were added in the following order: rhPTH(1-31)Gly32-OH, water, MES, potassium iodide, ethanol, cupric sulfate, α-keto acid or ester, ascorbate and PAM. All reactions were acidified to pH 2.0 with 6% trifluoroacetic acid and analyzed by CEX-HPLC (area %) to detect formation of the desired product rhPTH(1-31)NH2.

Take 2-Keto glutaric acid, sodium salt: where the note is “10 mM compound”, the “% Conversion” value stood at 76%.
In the case of `CCC(=O)C(=O)[O-].[Na+]` [2-Ketobutyric acid, sodium salt], for the setting “16 mM compound”, the “% Conversion” value came to 96%.
For `CC(C)C(=O)C(=O)[O-].[Na+]` [3-Methyl-2-oxobutanoic acid, sodium salt], for the setting “64 mM compound”, the “% Conversion” value was 78%.
On to `CCC(C)C(=O)C(=O)[O-].[Na+]` (stereo not shown) [3-Methyl-2-oxopentanoic acid, sodium salt], for which, under “10-150 mM compound”, the “% Conversion” value was “≦61%”.
For the molecule `CC(C)CC(=O)C(=O)[O-].[Na+]` [4-Methyl-2-oxopentanoic acid, sodium salt], the “% Conversion” value (10-150 mM compound) is reported as less than 48%.
Regarding `O=C(O)C(=O)c1ccccc1` [Benzoylformic acid], where the note is “10 mM compound”, the “% Conversion” value is reported as 82%.
Consider `CCOC(=O)C(C)=O` [Ethyl pyruvate], for which, for the setting “50 mM compound”, the “% Conversion” value amounted to 89%.
On to `COC(=O)C(C)=O` [Methyl pyruvate], for which, under “50 mM compound”, the “% Conversion” value came to 86%.
Consider `CC(=O)C(=O)O` [Pyruvic acid], for which the “% Conversion” value (6 mM compound, average of triplicate values) is recorded as 86^a %.
In the case of `CC(=O)C(=O)[O-].[Na+]` [Sodium pyruvate], for the setting “8 mM compound”, the “% Conversion” value was 95%.

Source of the values: patent publication US8163871B2, “Enzymatic reactions in the presence of keto acids” (Unigene Laboratories, Inc., priority 2004, dated 2012).
